Reference: patent US6737383B1, “Herbicidal oxadiazolidines” (priority 1999, dated 2004)

Legend:
blackgrass = experiment: Test B pre/postemergence blackgrass; type: in vivo, Alopecurus myosuroides
How it was run: (§1)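 Response is a visual 0-to-10 score relative to untreated plants, where 0 means no effect and 10 means complete control, taken twelve to sixteen days after application. Treatments went onto soil at planting and onto foliage of 1- to 4-leaf plants, using a surfactant-containing non-phytotoxic solvent.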

surinam grass = experiment: Test B pre/postemergence surinam grass; type: in vivo, Brachiaria decumbens
How it was run: as §1

cocklebur = experiment: Test B pre/postemergence cocklebur; type: in vivo, Xanthium strumarium
How it was run: as §1

corn = experiment: Test B pre/postemergence corn; type: in vivo, Zea mays
How it was run: as §1

crabgrass = experiment: Test B pre/postemergence crabgrass; type: in vivo, Digitaria sanguinalis
How it was run: as §1

giant foxtail = experiment: Test B pre/postemergence giant foxtail; type: in vivo, Setaria faberii
How it was run: as §1

morningglory = experiment: Test B pre/postemergence morningglory; type: in vivo, Ipomoea hederacea
How it was run: as §1

rape = experiment: Test B pre/postemergence rape; type: in vivo, Brassica napus
How it was run: as §1

soybean = experiment: Test B pre/postemergence soybean; type: in vivo, Glycine max
How it was run: as §1

velvetleaf = experiment: Test B pre/postemergence velvetleaf; type: in vivo, Abutilon theophrasti
How it was run: as §1

wheat = experiment: Test B pre/postemergence wheat; type: in vivo, Triticum aestivum
How it was run: as §1

wild oat = experiment: Test B pre/postemergence wild oat; type: in vivo, Avena fatua
How it was run: as §1

smallflower flatsedge = experiment: Test B flood test smallflower flatsedge; type: in vivo, Cyperus difformis
How it was run: (§2)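 Read-out is a visual response score from 0 (no effect) to 10 (complete control), assigned by comparison with untreated controls. Treatment was applied at the 2-leaf stage, and plants stayed in the greenhouse for twelve to sixteen days before scoring.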

duck salad = experiment: Test B flood test duck salad; type: in vivo, Heteranthera limosa
How it was run: as §2

bamyardgrass = experiment: Test B flood test barnyardgrass; type: in vivo, Echinochloa crus-galli
How it was run: as §2

[1] = Postemergence, Rate 250 g/ha, scale 0 to 10
[2] = Postemergence, Rate 500 g/ha, scale of 0 to 10 where 0 is no effect and 10 is complete control
[3] = Preemergence, Rate 62 g/ha, scale 0 to 10 (0 no effect, 10 complete control)
[4] = Preemergence, Rate 125 g/ha, scale of 0 to 10 where 0 is no effect and 10 is complete control
[5] = Preemergence, Rate 250 g/ha, scale 0 to 10, 0 is no effect, 10 is complete control
[6] = Preemergence, Rate 500 g/ha, scale 0 to 10, 0 is no effect, 10 is complete control
[7] = Rate 62 g/ha, Postemergence, scale of 0 to 10 where 0 is no effect and 10 is complete control
[8] = Rate 125 g/ha, Postemergence, scale 0 to 10, 0 is no effect, 10 is complete control
[9] = Postemergence block (flood test species), Rate 250 g/ha, scale 0 to 10
[10] = Postemergence section (flood test species), Rate 500 g/ha, scale of 0 to 10 where 0 is no effect and 10 is complete control
[11] = Rate 125 g/ha, Postemergence section (flood test species), scale 0 to 10, 0 is no effect, 10 is complete control
[12] = Rate 62 g/ha, Postemergence (flood test species), scale of 0 to 10 where 0 is no effect and 10 is complete control

CCN(C(=O)n1oc(=O)n(C2CCCCCC2)c1=O)C1CCCCC1 [Compound 429]
Blackgrass plant response rating (blackgrass; [1]): 3 | Blackgrass plant response rating (blackgrass; [2]): 3 | Plant response rating, Blackgrass (blackgrass; [3]): 0 | Plant response rating, Blackgrass (blackgrass; [4]): 0 | Blackgrass plant response rating (blackgrass; [5]): 0 | Blackgrass plant response rating (blackgrass; [6]): 3 | Blackgrass plant response rating (blackgrass; [7]): 0 | Blackgrass plant response rating (blackgrass; [8]): 2 | B. signalgrass plant response rating (surinam grass; Postemergence, Rate 250 g/ha, scale 0 to 10, 0 no effect, 10 complete control): 0 | B. signalgrass plant response rating (surinam grass; [2]): 0 | Plant response rating, B. signalgrass (surinam grass; [3]): 0 | Plant response rating, B. signalgrass (surinam grass; [4]): 0 | B. signalgrass plant response rating (surinam grass; [5]): 0 | B. signalgrass plant response rating (surinam grass; [6]): 4 | B. signalgrass plant response rating (surinam grass; [7]): 0 | B. signalgrass plant response rating (surinam grass; [8]): 0 | Cocklebur plant response rating (cocklebur; [1]): 0 | Cocklebur plant response rating (cocklebur; [2]): 0 | Plant response rating, Cocklebur (cocklebur; [3]): 0 | Plant response rating, Cocklebur (cocklebur; [4]): 0 | Cocklebur plant response rating (cocklebur; [5]): 0 | Cocklebur plant response rating (cocklebur; [6]): 0 | Cocklebur plant response rating (cocklebur; [7]): 0 | Cocklebur plant response rating (cocklebur; [8]): 0 | Corn plant response rating (corn; [1]): 0 | Corn plant response rating (corn; [2]): 0 | Plant response rating, Corn (corn; [3]): 0 | Plant response rating, Corn (corn; [4]): 0 | Corn plant response rating (corn; [5]): 0 | Corn plant response rating (corn; [6]): 0 | Corn plant response rating (corn; [7]): 0 | Corn plant response rating (corn; [8]): 0 | Crabgrass plant response rating (crabgrass; [1]): 2 | Crabgrass plant response rating (crabgrass; [2]): 3 | Plant response rating, Crabgrass (crabgrass; [3]): 7 | Plant response rating, Crabgrass (crabgrass; [4]): 10 | Crabgrass plant response rating (crabgrass; [5]): 10 | Crabgrass plant response rating (crabgrass; [6]): 10 | Crabgrass plant response rating (crabgrass; [7]): 0 | Crabgrass plant response rating (crabgrass; [8]): 1 | Giant foxtail plant response rating (giant foxtail; [1]): 2 | Giant foxtail plant response rating (giant foxtail; [2]): 4 | Plant response rating, Giant foxtail (giant foxtail; [3]): 3 | Plant response rating, Giant foxtail (giant foxtail; [4]): 10 | Giant foxtail plant response rating (giant foxtail; [5]): 10 | Giant foxtail plant response rating (giant foxtail; [6]): 10 | Giant foxtail plant response rating (giant foxtail; [7]): 0 | Giant foxtail plant response rating (giant foxtail; [8]): 1 | Morningglory plant response rating (morningglory; [1]): 2 | Morningglory plant response rating (morningglory; [2]): 3 | Plant response rating, Morningglory (morningglory; [3]): 0 | Plant response rating, Morningglory (morningglory; [4]): 0 | Morningglory plant response rating (morningglory; [5]): 0 | Morningglory plant response rating (morningglory; [6]): 0 | Morningglory plant response rating (morningglory; [8]): 1 | Rape plant response rating (rape; [1]): 0 | Rape plant response rating (rape; [2]): 0 | Plant response rating, Rape (rape; [3]): 0 | Plant response rating, Rape (rape; [4]): 0 | Rape plant response rating (rape; [5]): 0 | Rape plant response rating (rape; [6]): 0 | Rape plant response rating (rape; [8]): 0 | Soybean plant response rating (soybean; [1]): 2 | Soybean plant response rating (soybean; [2]): 3 | Plant response rating, Soybean (soybean; [3]): 0 | Plant response rating, Soybean (soybean; [4]): 0 | Soybean plant response rating (soybean; [5]): 0 | Soybean plant response rating (soybean; [6]): 0 | Soybean plant response rating (soybean; [8]): 2 | Velvetleaf plant response rating (velvetleaf; [1]): 2 | Velvetleaf plant response rating (velvetleaf; [2]): 2 | Plant response rating, Velvetleaf (velvetleaf; [3]): 0 | Plant response rating, Velvetleaf (velvetleaf; [4]): 0 | Velvetleaf plant response rating (velvetleaf; [5]): 0 | Velvetleaf plant response rating (velvetleaf; [6]): 0 | Velvetleaf plant response rating (velvetleaf; [8]): 0 | Wheat plant response rating (wheat; [1]): 0 | Wheat plant response rating (wheat; [2]): 0 | Plant response rating, Wheat (wheat; [3]): 0 | Plant response rating, Wheat (wheat; [4]): 0 | Wheat plant response rating (wheat; [5]): 0 | Wheat plant response rating (wheat; [6]): 0 | Wheat plant response rating (wheat; [8]): 0 | Wild oats plant response rating (wild oat; [1]): 0 | Wild oats plant response rating (wild oat; [2]): 0 | Plant response rating, Wild oats (wild oat; [3]): 0 | Plant response rating, Wild oats (wild oat; [4]): 0 | Wild oats plant response rating (wild oat; [5]): 0 | Wild oats plant response rating (wild oat; [6]): 0 | Wild oats plant response rating (wild oat; [8]): 0 | S. Flatsedge plant response rating (smallflower flatsedge; [9]): 3 | S. Flatsedge plant response rating (smallflower flatsedge; [10]): 9 | S. Flatsedge plant response rating (smallflower flatsedge; [11]): 0 | Ducksalad plant response rating (duck salad; [9]): 6 | Ducksalad plant response rating (duck salad; [10]): 6 | Ducksalad plant response rating (duck salad; [12]): 0 | Ducksalad plant response rating (duck salad; [11]): 2 | Barnyardgrass plant response rating (bamyardgrass; [9]): 1 | Barnyardgrass plant response rating (bamyardgrass; [10]): 7 | Barnyardgrass plant response rating (bamyardgrass; [12]): 0 | Barnyardgrass plant response rating (bamyardgrass; [11]): 0
